# Measured values reported in patent publication US10941399B2, “Methods and compositions for gene-specific demethylation by DNA methyltransferase (DNMT)-RNA interaction” (Beth Israel Deaconess Medical Center, Inc., priority 2011, dated 2021).
# “Also recorded” adds a separate entry of the source. [5mC] = 5-methylcytosine
# Key:
# [1] = tested on: myeloma cells; settings: cited from earlier work
# [2] = tested on: HL-60 cells; experiment: DRB and ML-60218 treatment of HL-60 cells, transcript levels by Taqman qRT-PCR; format: cell-based, human
# Procedure: qRT-PCR: Sybr green reactions were performed using iQ Sybr Green supermix (Biorad, Hercules, Calif.) using the following parameters: 95° C. (10 min.), 40 cycles of 95° C. (15 sec.) and 60° C. (1 min.), and 72° C. (1 min.). TaqMan analysis was performed using Hotstart Probe One-step qRT-PCR master mix (USB) at the following conditions: 50° C. (10 min.), 95° C. (2 min.), and then 40 cycles of 95° C. (15 sec.) and 60° C. (60 sec.). qRT PCR primers were located in the coding region for the mRNA (black double headed arrow) and after the polyA signal for the ecRNA (white double headed arrow) (FIG. 1A). The sequences of primers used for TaqMan real time PCR were as follows: human C/EBPa: Forward 5′-TCG GTG GACAAG AAC AG-3′ (SEQ ID NO:18), Reverse 5′-GCA GGC GGT CAT TG-3′ (SEQ ID NO:19), and Taqman Probe 5′-ACA AGGCCA AGC AGC GC-3′ (SEQ ID NO:20); ecRNA: Forward 5′-GGTTGTCTGTGGGCCAGGTCA-3′(SEQ ID NO:21), Reverse 5′-AGAGCTCATGAAAGTCAGGATTG-3′ (SEQ ID NO:22), and Taqman Probe 5′-AAT AAT ACAGCA TTT TCC CTG GCG G-3′(SEQ ID NO:23); human C/EBPγ: Forward: 5′-GGC TAG AGG AGC AGGTAC AT-3′ (SEQ ID NO:24), Reverse: 5′-GCCTGGGTATGGATAACACTA-3′ (SEQ ID NO:25), and Taqman Probe: 5′-CGACAC CAC TCA TGT CAA TGG CTG-3′ (SEQ ID NO:26); human TP73: ABI Cat. #Hs01060631_m1; 18S rRNA: ABI Cat. #4310893E; and human 5S rRNA: ABI Cat. #Hs02385257_g1. The sequences of primers used for real-time RT PCR (Sybr) were as follows: human C/EBPa: Forward: 5′-CCG CTC CTCCAC GCC TGT CCT TAG-3′ (SEQ ID NO:27) and Reverse: 5′-GCCCCACAGCCAGATCTCTAGGTC-3′ (SEQ ID NO:28); ecRNA: Forward: 5′-TCATGAGCTCTCCATCCATCCTGA-3′(SEQ ID NO:29) and Reverse: 5′-CTG GCCGAG GGT CCT GCT GGA ATC-3′ (SEQ ID NO:30); and β-ACTIN Promega Cat. #G5740.
# Double thymidine block (early S-phase block): HL-60 cells were grown overnight to 70-80% confluence, washed twice with 1×PBS, and cultured in DMEM (10% FCS)+2.5 mM thymidine for 18 h (first block). Thymidine was washed out with 1×PBS, and cells were grown in DMEM (10% FCS). After 8 hours, cells were cultured in presence of thymidine for 18 h (second block) and then released as described. Synchrony was monitored by flow cytometry analysis of propidium iodide-stained cells using a LSRII flow cytometer (BD Biosciences) at the Harvard Stem Cell Institute/Beth Israel Deaconess Center flow cytometry facility.
# DRB and ML-60218 treatment: After release from double thymidine block, HL-60 cells were treated with 100 μM of 5,6-Dichlorobenzimidazole 1-β-D-ribofuranoside (DRB) (Sigma Aldrich) for 1, 2, and 3 hours. HL-60 cells were treated with 25 μM ML-60218 (2-chloro-N[5-(5-chloro-3-methyl-1-benzothiophen-2-yl)-2-methylpyrazol-3-yl]benzenesulfonamide, Calbiochem®) for 24 hours. Total RNA was harvested as described above and expression levels of C/EBPa, ecRNA, and 5S were measured by Taqman qRT-PCR.
# [3] = target: DNMT1 (Homo sapiens, UniProt P26358); experiment: Electrophoretic gel mobility shift assays (EMSA/REMSA) and Kd determination with purified DNMT1; format: binding; design: purchased BPS Bioscience Inc; settings: for Kd: constant oligonucleotide concentration (1 nM) titrated with increasing DNMT1, nonlinear regression, read-out: dissociation constant (Kd)
# Procedure: Electrophoretic gel mobility shift assays (EMSAs) and Kd determination: DNA and RNA oligonucleotides (15 pmol) were end-labeled with [γ-32P] ATP (Perkin Elmer) and T4 polynucleotide kinase (New England Biolabs). Reactions were incubated at 37° C. for 1h and then passed through G-25 spin columns (GE Healthcare) according to the manufacturer's instructions to remove unincorporated radioactivity. Labeled samples were gel-purified on 10% polyacrylamide gels. Binding reactions were carried out in 10 μL volumes in the following buffer: 5 mM Tris pH 7.4, 5 mM MgCl2, 1 mM DTT, 3% v/v glycerol, 100 mM NaCl. Various amounts of purified DNMT1 protein (BPS Bioscience Inc., 0.021-0.156 μM) were incubated with 1.1 nM of 32P-labeled dsDNA and ss/ds RNAs. In the competitive assay, a fixed amount of protein and increasing amounts of competitors (dsDNA or poly (dI-dC)) were used. All reactions were assembled on ice and then incubated at room temperature. Samples were loaded onto 6% native polyacrylamide gels (0.5×TBE) at 4° C. for 3 h at 140 V. Gels were dried and exposed to X-ray film and a PhosphorImager screen. Data were analyzed with ImageQuant software. For affinity assays, the percent shifted species was determined as follows: the migration of the labeled DNA in this reaction was defined as zero percent shifted and the ratio of the PhosphorImager counts in the area of the lane above this band to the total counts in the lane was defined as background and subtracted from all other lanes. This band represented total input. Subsequent lanes containing DNMT1-nucleic acid complexes were treated identically, and the percentage complex formation was calculated as follows: [Input-(free probe for each lane+background/input)]. All experiments contained a control reaction lacking DNMT1. The percentage complex formation was plotted as a function of DNMT1 concentration using nonlinear regression analysis using Prism 4.0a.
# [4] = 100 μM DRB, 1, 2, 3 h after release from double thymidine block
# DNMT1, sequence (P26358 whole entry): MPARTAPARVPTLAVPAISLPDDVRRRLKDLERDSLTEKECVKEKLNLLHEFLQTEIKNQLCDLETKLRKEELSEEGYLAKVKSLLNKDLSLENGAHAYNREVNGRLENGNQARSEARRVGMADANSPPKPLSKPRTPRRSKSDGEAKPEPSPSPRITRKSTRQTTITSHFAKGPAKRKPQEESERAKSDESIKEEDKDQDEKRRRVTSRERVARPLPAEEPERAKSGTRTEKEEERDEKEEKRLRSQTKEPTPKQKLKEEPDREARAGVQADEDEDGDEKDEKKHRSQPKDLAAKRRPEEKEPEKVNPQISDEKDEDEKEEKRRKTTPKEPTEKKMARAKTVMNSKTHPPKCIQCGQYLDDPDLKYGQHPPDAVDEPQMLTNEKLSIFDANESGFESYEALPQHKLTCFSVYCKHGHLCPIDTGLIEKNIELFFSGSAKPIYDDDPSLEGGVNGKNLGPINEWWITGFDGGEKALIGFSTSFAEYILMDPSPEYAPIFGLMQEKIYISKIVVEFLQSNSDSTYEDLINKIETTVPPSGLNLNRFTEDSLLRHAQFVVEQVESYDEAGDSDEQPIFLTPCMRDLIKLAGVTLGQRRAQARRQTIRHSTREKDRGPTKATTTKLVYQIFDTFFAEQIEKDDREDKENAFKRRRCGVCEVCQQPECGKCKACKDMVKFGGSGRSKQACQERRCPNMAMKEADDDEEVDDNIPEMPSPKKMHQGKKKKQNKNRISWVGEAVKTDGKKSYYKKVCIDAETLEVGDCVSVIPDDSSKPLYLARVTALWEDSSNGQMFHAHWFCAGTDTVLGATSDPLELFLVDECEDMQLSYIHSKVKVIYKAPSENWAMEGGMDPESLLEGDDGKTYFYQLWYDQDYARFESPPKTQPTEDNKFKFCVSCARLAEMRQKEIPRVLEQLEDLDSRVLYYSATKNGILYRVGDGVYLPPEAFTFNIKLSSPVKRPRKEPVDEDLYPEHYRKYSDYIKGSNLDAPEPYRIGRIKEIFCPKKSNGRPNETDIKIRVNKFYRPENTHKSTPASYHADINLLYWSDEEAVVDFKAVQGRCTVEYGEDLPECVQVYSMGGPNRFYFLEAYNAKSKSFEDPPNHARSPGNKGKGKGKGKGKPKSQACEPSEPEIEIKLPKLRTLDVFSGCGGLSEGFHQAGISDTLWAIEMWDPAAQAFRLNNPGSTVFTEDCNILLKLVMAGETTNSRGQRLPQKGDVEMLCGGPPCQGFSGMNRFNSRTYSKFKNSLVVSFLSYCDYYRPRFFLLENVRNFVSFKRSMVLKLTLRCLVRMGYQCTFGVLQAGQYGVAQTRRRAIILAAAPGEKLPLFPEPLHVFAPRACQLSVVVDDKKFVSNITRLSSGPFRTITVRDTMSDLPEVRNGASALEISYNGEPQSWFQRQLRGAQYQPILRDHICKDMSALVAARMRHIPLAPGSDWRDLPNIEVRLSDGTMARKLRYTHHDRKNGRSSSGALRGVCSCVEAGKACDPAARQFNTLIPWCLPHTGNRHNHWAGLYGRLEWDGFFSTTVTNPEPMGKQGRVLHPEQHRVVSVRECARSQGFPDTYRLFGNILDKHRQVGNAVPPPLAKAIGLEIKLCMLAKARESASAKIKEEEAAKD
molecule,measurement,setting,value
Nc1ncn([C@H]2C[C@H](O)[C@@H](CO)O2)c(=O)n1 [5-aza-2′-deoxycytidine],PU.1 expression,[1],upregulation
same,growth of myeloma cells,[1],growth arrest
"OC[C@H]1O[C@@H](n2cnc3cc(Cl)c(Cl)cc32)[C@H](O)[C@@H]1O [DRB, 5,6-Dichlorobenzimidazole 1-β-D-ribofuranoside]",C/EBPa mRNA expression level,[2]; [4],strong down-regulation
same,ecRNA expression level,[2]; [4],no decrease; also recorded: did not reduce
"Cc1c(-c2cc(NS(=O)(=O)c3ccccc3Cl)n(C)n2)sc2ccc(Cl)cc12 [ML-60218, 2-chloro-N[5-(5-chloro-3-methyl-1-benzothiophen-2-yl)-2-methylpyrazol-3-yl]benzenesulfonamide]",5S rRNA level,"[2]; 25 μM ML-60218, 24 hours",significantly reduced
same,C/EBPa mRNA level,"[2]; 25 μM ML-60218, 24 hours",little effect; also recorded: only moderately affected
same,ecRNA level,"[2]; 25 μM ML-60218, 24 hours",marked down-regulation; also recorded: significantly reduced
NCCCNCCCCNCCCN [spermine],effect of spermine on RNA-DNMT1 binding,[3]; REMSA with increasing concentrations of spermine,Only a thousand-fold molar excess of spermine began to moderately affect the binding; also recorded: no significant changes in binding were observed
"R04: ssRNA oligonucleotide of C/EBPa ecRNA, positions 4777-4798 of SEQ ID NO:8 (SEQ ID NO:63), lacking stem-and-loop-like structures (UCACACACACCGCAGCUCCAGA; chemistry not given here; listed as Homo sapiens)",DNMT1 binding affinity in REMSA (in words),[3],did not display the same binding affinity as folded RNA; also recorded: lower DNMT1 affinity compared to R05
"RNA: folded ssRNA oligonucleotide of C/EBPa ecRNA, positions 4627-4648 of SEQ ID NO:8 (SEQ ID NO:62) (CUGAGGCCUUGGCGAGGCUUCU; chemistry not given here; listed as Homo sapiens)",Kd,[3]; EMSA,45 nM
same,DNMT1 concentration at which initial complex is formed,"[3]; EMSA, increasing DNMT1 concentrations",< 0.013 µM
same,strength of DNMT1 complex with RNA compared to hmDNA and mDNA,[3]; ratio versus hmDNA and mDNA,3 fold
same,strength of DNMT1 complex with RNA compared to umDNA,[3]; ratio versus umDNA,2 fold
"hmDNA: hemimethylated dsDNA probe (SEQ ID NOs:65, 72) (chain 1 CTGAGGCCTTGGCGAGGCTTCT; chain 2 AGAAGCCTCGCCAAGGCCTCAG; chain 1: DNA, [5mC] at 13, backbone and methylation of C not given here; chain 2: DNA, backbone not given here; listed as Homo sapiens)",Kd,[3]; EMSA,140 nM
"mDNA: methylated dsDNA probe (SEQ ID NOs:66, 73) (chain 1 CTGAGGCCTTGGCGAGGCTTCT; chain 2 AGAAGCCTCGCCAAGGCCTCAG; chain 1: DNA, [5mC] at 13, backbone not given here; chain 2: DNA, [5mC] at 9, backbone not given here; listed as Homo sapiens)",Kd,[3]; EMSA,110 nM
mutated R01: R01 with C to U substitutions in CpG dinucleotides (SEQ ID NO:69) (CUGGGAUGCAGGUGGUGUCAGGC; chemistry not given here; listed as Homo sapiens),DNMT1 binding after C to U substitution of CpG dinucleotides,[3]; stem-and-loop-like structure preserved,not affected
"umDNA: unmethylated dsDNA probe (SEQ ID NOs:64, 71) (chain 1 CTGAGGCCTTGGCGAGGCTTCT; chain 2 AGAAGCCTCGCCAAGGCCTCAG; DNA, backbone not given here; listed as Homo sapiens)",Kd,[3]; EMSA,82 nM
